The text below walks through data of patent US8465778B2, “Method of making tyrosine kinase microspheres” (Allergan, Inc., priority 2004, dated 2013).

In brackets after ≈: the same amount, converted by molar mass. Where two headings read alike, the source gives them in different places. A value given as a limit tells only on which side of the number the result lay.

The nature of one data set: in vivo. To be noted: female, albino, rabbit.
Data set [1] is described as follows: In vitro TKI release from PLGA/PLA implants (Example 2). The data set is classed as physicochemical. To be noted: for period of in-vitro release from implants: implants in release medium, 37° C. The protocol:
TKI release from the implants was assessed in vitro. Implants were placed into vials containing release medium and shaken at 37° C. At the appropriate time points a sample was taken from the release medium for analysis and the medium totally replaced to maintain sink conditions. Drug in the sample was assayed by HPLC and the cumulative percent release of drug from the implant noted as a function of time. The in vitro release profiles of AGN 200954, AGN 202314, AGN 201635 and AGN 202564 are depicted in FIGS. 3 through 10, respectively.

A short description of data set [2]: Intravitreal pharmacokinetics of TKIs in fluid compositions after a single intravitreal injection. The following applies: female, albino, rabbit, vitreous humor, other: intravitreal injection.
Description: Vitreous humor samples (n=4 eyes per timepoint) were collected at 0.5, 1, 2, 4, 8, and 12 hr postdose. The TKI concentration in the vitreous humor was determined using a liquid chromatography tandem mass spectrometry method (LC-MS/MS).
Data set [3] in a line: Physicochemical properties of the TKIs (solubility, log P, log D, pKa; Tables 2, 11, 13). To be noted: for logP: n-octanol/water, Table 2; for solubility: pH 7, aqueous buffer. The protocol:
Tyrosine kinase inhibitors were incorporated into PLGA or PLA implants by extrusion. The TKIs were milled with the polymers at certain ratios then extruded into filaments. These filaments were subsequently cut into implants weighing approximately 1 mg. Several TKIs were formulated in the PLGA and PLA implants based on their potencies and physicochemical properties as shown in Table 2.
We developed a new (oil in water) process for making active agent microspheres (FIG. 23). This new process for making microspheres can be used with any small molecule which is slightly soluble in water and organic solvents and which is able to preferentially crystallize in organic solvents. Such small molecules include those which have a Log P greater than or equal to four. P, the partition coefficient, is defined as the ratio of the equilibrium concentration (Ci) of a dissolved substance in a two-phase system consisting of two largely immiscible solvents, for example the ratio of n-octanol (Co) to water (Cw).
Using our new process, each of the five different TKIs shown by FIG. 24 were separately incorporated into PLGA biodegradable microspheres. In FIG. 24 the five TKIs shown are identified as follows: first (uppermost) row: 206639 and 205558; second (middle) row: 206320 and 206316, and; bottom row: 206784. The properties of these five TKIs are set forth in Table 13, where “DSC” means differential scanning calorimetry and endotherms are noted in degrees Celsius (used to determine presence of TKI crystals).

The nature of data set [4]: Stability of AGN 201634 standard solution in DI water/acetonitrile at 4° C. It counts as physicochemical. To be noted: DI water/acetonitrile (75%/25%) at 4° C. The procedure:
The stability of AGN 201634 standard solution in deionized water/acetonitrile (75%/25%) was examined at 4° C., and the results are summarized in the following table. The concentration of standard solution was from 0.0695 μg/mL to 8.693 μg/mL, and was analyzed on day 14, 21, and 35.
Stability of AGN 201634 standard solution of various concentrations in DI water/acetonitrile (75%/25%) at 4° C. (Table 9).

The nature of data set [5]: Stability of TKI in Formulations 3 and 4 in media of pH 6.0, 7.4 or 8.5. The data set is classed as physicochemical. The procedure:
To examine the stability of TKI in formulation, Formulations 3 and 4 were prepared to various concentration in a medium of pH 6.0, 7.4 or 8.5, respectively, and subjected to an incubation condition of either 7 days under ambient condition or 14 days at 4° C., and the results are summarized in the following table.

Data set [6] is described as follows: In vitro release of AGN 201634 from PDLG/PDL implants in different media. It counts as physicochemical. The protocol: TKI release was examined for implants made from poly (D,L-lactide-co-glycolide) (PDLG) or poly (D,L-lactide) (PDL) in different media with or without addition of detergent at 37° C. in a shaking water bath.
TKI release was examined in various medium, including saline, phosphate buffer saline of pH 7.4, 50 mM bicarbonate buffer of pH 6.0±0.1 with 0.1% cetyltrimethylammonium bromide (CTAB), and 50 mM borate buffer of pH 8.5±0.1 with 0.5% sodium dodecyl sulfate (SDS) in a shaking water bath (Precision) at 37° C. Sample was incubated in 10 mL of medium, and was totally replaced with fresh medium at each sampling time. Drug concentration was determined by HPLC using a Waters 2690 Separation Module equipped with a Waters XTerra RP8 column (3.9×150 mm, 5 μm, equilibrated at ambient) and a Waters 996 photodiode array detector (set at 238 nm) using 0.1% acetic acid in acetonitrile/water (40/60 by volume) as the mobile phase under a flow rate of 1.2 mL/min. The column was equilibrated with mobile phase for at least 30 min before initiating any sample injection.
The DDS was incubated in a vial of either 40 or 20 mL, and 10 mL sample solution was replaced by same volume of fresh medium, respectively, at each sampling time. The release profiles in saline and PBS were obviously different. Less than 5% of TKI was released in saline during the first 70 days. In contrast, less than 5% of AGN 201634 was released at the first 3 weeks when DDS was incubated in PBS, the same as in saline, but more than 80% of AGN 201634 was released after 70 days. […] It seems that release medium plans an important role in the variation of release profile instead of incubation volume. Due to this slow and diverged release profile, the release profile of Formulation 2 was not performed since its formulation was based on the same polymer with a lower drug loading.
For F3, more than 50%, 45%, and 75% TKI was released at the first 3, 7, and 2 weeks, when DDS was incubated in a medium of pH 6.0 (with 0.1% CTAB), 7.4 (PBS) and 8.5 (with 0.5% SDS), respectively. […]

A short description of data set [7]: In vivo pharmacokinetics of AGN 202314 intravitreal PLGA implants. Also on record: species or system rabbit. The protocol: Implants containing AGN 202314 were placed intravitreally or subconjunctivally in an eye. The implants released AGN 202314 in-vitro over a 14 day period (FIG. 3.). The intent of this study was to achieve an intravitreal in-vivo/in-vitro correlation with the intravitreal implants and assess the feasibility of periocular delivery.
Intravitreal Implants, PLGA (400 μg AGN 202314 dose, 1 mg total implant weight), were implanted by surgical incision into the mid vitreous of albino rabbits. At days 8, 15, 31 and 61 rabbits were sacrificed and the vitreous humor, lens, aqueous humor and plasma assayed for AGN 202314.

A short description of data set [8]: In vivo pharmacokinetics of AGN 202314 subconjunctival PLGA implants and PLA microspheres. The following applies: rabbit; for concentration at 8 day: Day 8. The procedure: Subconjunctival implants, PLGA (1200 μg AGN 202314 dose; three implants) and PLA microspheres (300 μg AGN 202314) were implanted subconjunctivally. At days 8, 15, 31 and 61 rabbits were sacrificed and the vitreous humor, lens, aqueous humor and plasma assayed for AGN 202314.

The mark [9] stands for this setting: Day 31, subconjunctival PLGA implants, 3 rods, total 1.2 mg AGN 202314.
Where [10] appears, read: Day 61, subconjunctival PLGA implants, 3 rods, total 1.2 mg AGN 202314.

Turning to `O=C1Nc2ccccc2C1=CNc1ccc(N2CCOCC2)cc1` [AGN 199659, 3-[(4-Morpholin-4-yl-phenylamino)-methylene]-1,3-dihydro-indol-2-one], in the data set “in vivo”, the Vd – broadly, the apparent volume that relates the amount in the body to the concentration in plasma or blood – came to 0.000255 L; the clearance (commonly a measure of how efficiently the substance is removed, as volume per time) was 0.00387 mL/min; the half-life (usually how long it takes for the measured level to halve) was 1.21 h.

Regarding `Nc1ccc2c(c1)C(=C1C(=O)Nc3ccc(Cl)cc31)OC2` [AGN 200954, 3-(6-Amino-3H-isobenzofuran-1-ylidene)-5-chloro-1,3-dihydro-indol-2-one], the “period of in-vitro release from implants” value in data set [1] was found to be 180 days. In [2], this compound showed a Vd of 0.000705 L and a half-life of 2.59 h. Further, the clearance in the data set “in vivo” is 0.00433 mL/min. Further, in [3], the logP (commonly the decadic logarithm of the partition coefficient of the neutral form, usually between octanol and water) came out at 2.21; the solubility (in general, how much of the substance goes into solution per volume) came to 0.3 µg/mL (≈ 1 µM).

As to `O=C(O)CC1O/C(=C2/C(=O)Nc3cc(F)ccc32)c2ccccc21` (centres unmarked) [AGN 201634], the stability of solution result in data set [4] was “more than 35 days”. For the same compound, the “stability of DDS solution in various pH medium” value was over 14 days in data set [5] (4° C.) and “more than 7 days” in [5] (ambient condition). The “duration of controlled release in vitro” value in data set [6] (medium of pH 6.0) is listed as “more than 5 months”; in data set [6] (medium of pH 7.4), “more than 5 months”; in data set [6] (medium of pH 8.5), “more than 4 weeks”. In addition, in data set [3], the logP is 1.25. Besides, the concentration in solution in data set [3] (solubility) came to 88 µg/mL (≈ 271 µM).

`CCN(CC)CCOc1ccc(NC=C2C(=O)Nc3cc(F)ccc32)cc1` [AGN 202314]: the plasma levels result in [7] (all time points (days 8, 15, 31, 61), implants in rabbit eye) was “BLQ or extremely low”. For the same compound, the “period of drug release in vivo” value in data set [7] (intravitreal PLGA implant, albino rabbit) was “two”. In [1] (1 mg Purac PLA implants), the “period of in-vitro delivery from formulations” value is given as “four”. Also, the “period of drug release in vitro” value in data set [1] (AGN 202314 implant) is “two”. Moreover, the “period of in-vitro release from implants” value in data set [1] was 14 days. In addition, the “Retina AGN 202314 concentration” value is “BLQ (BLQ: Retina and lens: <5 ng/g)” in [8] (Day 15, subconjunctival PLGA implants, 3 rods, total 1.2 mg AGN 202314); “BLQ (BLQ: Retina and lens: <5 ng/g)” in data set [8] (setting [9]); “BLQ (BLQ: Retina and lens: <5 ng/g)” in [8] (setting [10]). Moreover, the “Lens AGN 202314 concentration” value in data set [8] (setting [9]) was “BLQ (BLQ: Retina and lens: <5 ng/g)”; in [8] (setting [10]), “BLQ (BLQ: Retina and lens: <5 ng/g)”. The concentration at 8 day in data set [8] (aqueous humor, other: subconjunctival implant, subconjunctival PLGA implants, 3 rods, total 1.2 mg AGN 202314, read-out: Aqueous Humor AGN 202314 concentration) stood at 6.38 ng/mL; in data set [8] (lens, other: subconjunctival implant, subconjunctival PLGA implants, 3 rods, total 1.2 mg AGN 202314, read-out: Lens AGN 202314 concentration), 229 ng/g; in data set [8] (retina, other: subconjunctival implant, subconjunctival PLGA implants, 3 rods, total 1.2 mg AGN 202314, read-out: Retina AGN 202314 concentration) it was 63.8 ng/g. Moreover, the concentration at 15 day in data set [8] (lens, other: subconjunctival implant, Day 15, subconjunctival PLGA implants, 3 rods, total 1.2 mg AGN 202314) was determined as 7.93 ng/g. In addition, the “periocular delivery to the vitreous and retina” value in data set [8] (subconjunctival implants and microspheres) was “unsuccessful”. In addition, the pKa (in general, the pH at which an ionisable group is half protonated) in [3] came out at 9.68. In addition, in [3], the logP came to 3.8. Further, the concentration in solution in [3] (solubility) came to 202 µg/mL (≈ 547 µM).

With `Cc1cccc2c1C(=CNc1ccc(CCN3CCCCC3)cc1)C(=O)N2` [AGN 202560], in data set [3], the pKa worked out at 9.65, the logP came to 3.66 and the solubility came out at 41 µg/mL (≈ 113 µM).
